In US20200206248A1, “COMBINED MEDICINAL PREPARATION FOR TREATING VIRAL INFECTIONS” (ALLA CHEM, LLC, priority 2017, published 2020):

Assays:
[1] = Acute toxicity of SODF, intragastric administration to mice; type: in vivo; conditions: 3000 mg/kg
Description: (§1) Evaluation of SODF acute toxicity and tolerated toxic and lethal doses for single intragastric administration to male and female mice and rats. Evaluation was carried out for 24 male rats weighing 235-260 g and […] female rats weighing 225-250 g as well as for 24 male mice weighing 21-25 g and 24 female mice weighing 20-24 g. All in all, there were 8 groups in each of the four categories. SODF was administered in the largest possible volume 10 ml/kg three times a day at a 40-minute interval. Prior to administration, SODFs were dispersed, then ground in a mortar and mixed with a 0.5% Tween 80 solution to obtain a suspension suitable for intragastric administration to animals at a dose of ≤10 ml/kg. Solutions for administration were always prepared on the day of administration. Prepared SODF suspensions were administered at the same time every day (within a deviation of maximum 4 hours). […] On each of the 14 days following SODF administration, the weights of rats and mice were recorded and the animals were examined to detect any cases of death or abnormal condition. In this way, parameters of acute SODF toxicity were established.

[2] = Acute toxicity of SODF, intragastric administration to rats; type: in vivo; conditions: 3000 mg/kg
Description: as §1

[3] = test system: NL4.3 HIV strain (NL4.3-GFP); assay: Anti-HIV activity in SupT1 cells infected with NL4.3-GFP; type: cell-based; conditions: read after 45 hours
Description: (§2) The anti-HIV activity of active ingredients (test compounds) was evaluated using SupT1 cells. The cells were infected with the NL4.3 HIV strain carrying a gene of green fluorescence protein (NL4.3-GFP). The virus preparation was obtained by transfection of 293T cells of proviral DNA. Forty-eight hours after the transfection, the preparation was frozen and stored until use. To enhance the infection efficiency, the suspension of SupT1 cells was precipitated from the infection mixture by centrifugation. Test compounds were added to the cells immediately before virus addition. After a 2-hour incubation, the infection mixture was replaced by fresh culture medium with test compounds. The infection efficiency was evaluated following 45 hours by counting the percent of fluorescing cells against noninfected cell cultures. The cytotoxicity of test compounds was evaluated simultaneously at the same, but not infected, SupT1 cellular line using the XTT reagent. To this end, serial ten-fold dilutions of test compounds were prepared (starting with 10 μM to evaluate viral activity or with 100 μM to evaluate cytotoxicity). […] As a result, the values of activity EC50, cytotoxicity CC50, and selectivity index SI were calculated. The test quality was evaluated using the following controls: signal to background ratio, integrase inhibitor raltegravir (1 μM), and reproducibility of the test. […]

SupT1 cells = assay: Cytotoxicity in non-infected SupT1 cells (XTT reagent); type: cell-based
Description: as §2

HBV = assay: Anti-HBV activity in AD38 cells (secreted HBV DNA, qPCR); type: cell-based; conditions: 4-day incubation
Description: (§3) Anti-HBV activity of tenofovir of formulas 4f, 4h, 4k, 4m (test compounds) was evaluated in the cell line of human hepatoma AD38 carrying integrated HBV DNA with terminal repeats [Lander S, et. al, Antimicrobial Agents and Chemotherapy, 1997, pp. 1715-1720]. The cell line was made available by Dr. C. Seeger, Fox Chase Cancer Center, Philadelphia, Pa.). Simultaneously, cytotoxicity was evaluated.
The cells were cultivated in complete DMEM/F12 culture medium containing 2 mM of L-glutamine (Thermo Scientific, Cat #11320033), 10% fetal bovine serum (ThermoFisher Scientific, Cat#), 1% antibiotic-antimycotic solution (ThermoFisher Scientific, Cat#15240096), and 0.3 μg/ml of tetracycline (Sigma, Cat # T7660-5G). The cells were seeded into 96-well Corning Biocoat plates (Corning, Cat # 356407) in 225 μl of complete medium without tetracycline, 20 000 cells per well. The test compounds were dissolved first in DMSO (Sigma cat. D2650), then in DMEM/F12 medium, and 9 dilutions in log 3 steps (225 μl) were added to the cells. The final concentrations of test compounds varied from […] to 1 nM. […]
The technique of real-time quantitative polymerase chain reaction (RT-qPCR) was applied using the CFX96TM Real-Time System instrument (Bio-Rad, Hercules, Calif.) and polymerase AmpliTaq Gold® DNA Polymerase (Applied Biosystems®). […]
The fluorescent signal was read at the end of each cycle. […]

AD38 cell line = assay: Cytotoxicity in AD38 cells (ATPLite); type: cell-based, human; conditions: 3 days
Description: as §3
The cytotoxicity of test compounds was determined simultaneously on the same AD38 cell line. The cells were cultivated in a 96-well black plate with a transparent bottom (10^4 cells/well) in complete DMEM/F12 medium containing 2 mM of L-glutamine (Thermo Scientific, Cat #11320033), 10% fetal bovine serum (ThermoFisher Scientific, Cat#), and 1% antibiotic-antimycotic solution (ThermoFisher Scientific, Cat#15240096). The AD38 cells were seeded in 96-well plates (7.5×10^3 cells/well in 100 μl of medium). The solutions of test compounds in DMEM were prepared immediately before use. […] The number of living cells was counted using the ATPLite kit (Perkin Elmer, Boston, USA) in compliance with manufacturer's instructions. […] After additional 5-minute incubation on a rocking platform at 600 rev/min, the plates were kept in dark for 10 minutes, and the luminescence was read using TopCount NXT (Packard, Perkin Elmer). […] CC50 values (Table 2) were then determined using XLfit 4 software.

SMILES | body weight gain [1] | body weight gain [2] | EC50 [3] [nM] | CC50 (SupT1 cells) [µM] | EC50 (HBV) [nM] | CC50 (AD38 cell line) [nM]
CCC(=O)[N-]S(=O)(=O)c1ccc(NC(=O)Cc2ccc(Br)c(Oc3cc(Cl)cc(C#N)c3)c2F)c(Cl)c1.[Na+] [Compound 1a, elsulfavirine sodium] | did not affect body weight gain | did not affect body weight gain |  |  |  | 
CC(C)OC(=O)[C@H](C)N[P@](=O)(CO[C@H](C)Cn1cnc2c(N)ncnc21)Oc1ccccc1 [Compound 4f, tenofovir alafenamide hemifumarate] |  |  | 43 | > 100 | 0.3 to 0.7 | 3000
